SMILES strings stand for the structures.

Sequence of Jak2 (human Jak2 kinase domain, amino acids 808-1132) (O60674 808-1132): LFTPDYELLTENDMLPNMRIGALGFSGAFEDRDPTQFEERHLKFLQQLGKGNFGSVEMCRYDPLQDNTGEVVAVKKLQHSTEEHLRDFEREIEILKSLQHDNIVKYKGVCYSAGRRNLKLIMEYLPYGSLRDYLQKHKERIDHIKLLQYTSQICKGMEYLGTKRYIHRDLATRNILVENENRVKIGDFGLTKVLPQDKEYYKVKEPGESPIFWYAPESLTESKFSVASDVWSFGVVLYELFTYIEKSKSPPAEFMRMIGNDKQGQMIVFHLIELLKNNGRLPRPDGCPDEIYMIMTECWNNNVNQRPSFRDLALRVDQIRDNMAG
Sequence of Jak3 (GST-tagged human Jak3 kinase domain, amino acids 781-1124) (P52333 781-1124): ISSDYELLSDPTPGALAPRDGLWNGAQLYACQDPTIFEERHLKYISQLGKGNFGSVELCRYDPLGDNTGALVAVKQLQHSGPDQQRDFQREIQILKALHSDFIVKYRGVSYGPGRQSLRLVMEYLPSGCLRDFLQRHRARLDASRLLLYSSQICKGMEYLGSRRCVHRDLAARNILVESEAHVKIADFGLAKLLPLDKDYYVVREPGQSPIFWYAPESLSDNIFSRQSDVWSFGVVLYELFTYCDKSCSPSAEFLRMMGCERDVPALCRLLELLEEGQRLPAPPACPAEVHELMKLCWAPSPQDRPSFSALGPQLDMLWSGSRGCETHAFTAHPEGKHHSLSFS

The first test deals with Jak3 (GST-tagged human Jak3 kinase domain, amino acids 781-1124) (Homo sapiens (Human), UniProt P52333). The test is described as follows: Jak3 inhibition assay (Omnia kinase assay). The conditions noted are these: read-out: Jak3 (% inhibition at 1000 nM); Table 2; 1000 nM test compound. The test is classed as biochemical. How it is done:
(§1) The assays described in Examples C, D, E and F for the determination of JAK1, JAK2, JAK3 and Tyk2 kinase activity, respectively, utilized the Omnia® Kinase fluorescence peptide substrate-based technology (Invitrogen). […] The reactions were therefore read at excitation 360 nm and emission was measured at 485 nm every 50 seconds for 45 minutes using a PerkinElmer EnVision Multilabel Plate Reader.
(§2) The final buffer conditions for each of the JAK1, JAK2, JAK3 and Tyk2 assays were as follows: 25 mM HEPES, pH 7.4, 10 mM MgCl2, 0.01% Triton X-100 and 1 mM DTT.
(§3) Compounds were prepared at 50× the final concentration in DMSO by conducting 3-fold serial dilutions from a 500-μM or 1000-μM intermediate dilution to give a 10-point dosing curve having a high dose of 10 or 20 μM. Two-μL aliquots of these were transferred to a fresh plate for a ten-fold intermediate dilution with assay buffer. Five-μL aliquots of the diluted compounds were then transferred to 20-μL of assay mixtures described in Examples C, D, E and F for a final concentration of DMSO of 2%. A standard or reference compound was typically included on each assay plate to validate that plate. For each plate, percent of control (POC) values were calculated for each well according to the following equation:
(§4) where Xmax=Average Uninhibited Controls • Xmin=Average Background IC50's were estimated from the POC's using a standard 4-parameter logistic model:
(§5) where A=Minimum Y (Bottom Asymptote) • B=Maximum Y (Top Asymptote) • C=EC50 • D=Slope Factor • X=Compound Concentration (nM) • Y=POC
(§6) The IC50 is defined as the concentration of inhibitor at which the POC equals 50 for the fitted curve.
Compounds of Formula I were screened for their ability to inhibit Jak3 using the general enzyme inhibition assay method, in which the assay mixture contained 500 μM ATP, 10 μM Omnia® Y7 peptide (Catalog # IVGN KNZ3071C, Invitrogen Corporation, Carlsbad, Calif.) and 1.5 nM Jak3 in a total volume of 20 μL. GST-tagged human Jak3 kinase domain comprising amino acids 781-1124 was purchased from Invitrogen Corporation, Carlsbad, Calif. (catalog # IVGN PV3855).
As to `CNC(=O)c1cnn2ccc(N3CCC[C@@H]3c3cncc(F)c3)nc12` [Example 114, (R)-5-(2-(5-fluoropyridin-3-yl)pyrrolidin-1-yl)-N-methylpyrazolo[1,5-a]pyrimidine-3-carboxamide], the inhibition (in general, the relative decrease from the control value, in per cent) at 1 µM amounted to 8.5%.

A further test addresses Jak2 (human Jak2 kinase domain, amino acids 808-1132) (Homo sapiens (Human), UniProt O60674). The test is described as follows: Jak2 inhibition assay (Omnia kinase assay). The test is classed as biochemical. The conditions noted are these: read-out: Jak2 (% inhibition at 1000 nM), Table 2; 1000 nM test compound.
Turning to `CNC(=O)c1cnn2ccc(N3CCC[C@@H]3c3cncc(F)c3)nc12` [Example 114, (R)-5-(2-(5-fluoropyridin-3-yl)pyrrolidin-1-yl)-N-methylpyrazolo[1,5-a]pyrimidine-3-carboxamide], the inhibition at 1 µM stood at 15.6%.

Staying with this test, now noted: read-out: Jak2 Enzyme (% inhibition at 1000 nM), Table 1; 1000 nM test compound.
Take `CNC(=O)c1cnn2ccc(N3CCC[C@@H]3c3cncc(F)c3)nc12` [Example 114, (R)-5-(2-(5-fluoropyridin-3-yl)pyrrolidin-1-yl)-N-methylpyrazolo[1,5-a]pyrimidine-3-carboxamide]: the inhibition at 1 µM stood at 5%.

For `C[C@H](O)[C@@H](CO)NC(=O)c1cnn2ccc(N3CCC[C@@H]3c3cc(F)ccc3F)nc12` [Example 176, 5-((R)-2-(2,5-difluorophenyl)pyrrolidin-1-yl)-N-((2R,3S)-1,3-dihydroxybutan-2-yl)pyrazolo[1,5-a]pyrimidine-3-carboxamide], the inhibition at 1 µM was 6.3%.

Regarding `COc1ccc(F)cc1[C@H]1CCCN1c1ccn2ncc(C(=O)NC3CC3)c2n1` [Example 48, (R)—N-cyclopropyl-5-(2-(5-fluoro-2-methoxyphenyl)pyrrolidin-1-yl)pyrazolo[1,5-a]pyrimidine-3-carboxamide], the inhibition at 1 µM was 72.7%.

Take `C[C@H](NC(=O)c1cnn2ccc(N3[C@@H](c4cncc(F)c4)CC[C@@]3(C)CO)nc12)C(F)(F)F` [Example 220, 5-((2S,5R)-5-(5-fluoropyridin-3-yl)-2-(hydroxymethyl)-2-methylpyrrolidin-1-yl)-N—((S)-1,1,1-trifluoropropan-2-yl)pyrazolo[1,5-a]pyrimidine-3-carboxamide]: the inhibition at 1 µM stood at 15.2%.

Consider `Cc1ncc(F)cc1[C@H]1CCCN1c1ccn2ncc(C(=O)N[C@H]3CC[C@H](O)C3)c2n1` [Example 196, 5-((R)-2-(5-fluoro-2-methylpyridin-3-yl)pyrrolidin-1-yl)-N-((1S,3S)-3-hydroxycyclopentyl)pyrazolo[1,5-a]pyrimidine-3-carboxamide], for which the inhibition at 1 µM came out at 10.6%.

As to `CC(C)(C)NC(=O)c1cnn2ccc(N3C[C@H](O)C[C@@H]3c3cccc(F)c3)nc12` [Example 42, N-tert-butyl-5-((2R,4R)-2-(3-fluorophenyl)-4-hydroxypyrrolidin-1-yl)pyrazolo[1,5-a]pyrimidine-3-carboxamide], the inhibition at 1 µM is 7.7%.

On to `COc1ncc(F)cc1[C@H]1CCCN1c1ccn2ncc(C(=O)NCC(O)CO)c2n1` (stereo partly drawn) [Example 149, N-(2,3-dihydroxypropyl)-5-((R)-2-(5-fluoro-2-methoxypyridin-3-yl)pyrrolidin-1-yl)pyrazolo[1,5-a]pyrimidine-3-carboxamide], for which the inhibition at 1 µM was found to be 10.2%.

As for `O=C(N[C@@H]1CCCC[C@H]1O)c1cnn2ccc(N3CCC[C@@H]3c3cncc(F)c3)nc12` [Example 136, 5-((R)-2-(5-fluoropyridin-3-yl)pyrrolidin-1-yl)-N-((1R,2R)-2-hydroxycyclohexyl)pyrazolo[1,5-a]pyrimidine-3-carboxamide], the inhibition at 1 µM was 4.8%.

As for `CNC(=O)c1cnn2ccc(N3C[C@@H](O)C[C@@H]3c3cccc(F)c3)nc12` [Example 218, 5-((2R,4S)-2-(3-fluorophenyl)-4-hydroxypyrrolidin-1-yl)-N-methylpyrazolo[1,5-a]pyrimidine-3-carboxamide], the inhibition at 1 µM came to 24.6%.

For `O=C(NC1CC1)c1cnn2ccc(N3CCC[C@@H]3c3cc(F)ccc3OCC(O)CO)nc12` (stereo partly drawn) [Example 210, N-cyclopropyl-5-((2R)-2-(2-(2,3-dihydroxypropoxy)-5-fluorophenyl)pyrrolidin-1-yl)pyrazolo[1,5-a]pyrimidine-3-carboxamide], the inhibition at 1 µM turned out to be 32.3%.

Regarding `CC1(O)CN(C(=O)c2cnn3ccc(N4CCC[C@@H]4c4cncc(F)c4)nc23)C1` [Example 92, (R)-(5-(2-(5-fluoropyridin-3-yl)pyrrolidin-1-yl)pyrazolo[1,5-a]pyrimidin-3-yl)(3-hydroxy-3-methylazetidin-1-yl)methanone], the inhibition at 1 µM stood at 0.5%.

Take `O=C(NC[C@@H](O)CO)c1cnn2ccc(N3CCC[C@@H]3c3cc(F)ccc3F)nc12` [Example 26, 5-((R)-2-(2,5-difluorophenyl)pyrrolidin-1-yl)-N—((R)-2,3-dihydroxypropyl)pyrazolo[1,5-a]pyrimidine-3-carboxamide]: the inhibition at 1 µM was 9.9%.

As for `COCCOc1cc(F)cc([C@H]2CCCN2c2ccn3ncc(C(N)=O)c3n2)c1` [Example 78, (R)-5-(2-(3-fluoro-5-(2-methoxyethoxy)phenyl)pyrrolidin-1-yl)pyrazolo[1,5-a]pyrimidine-3-carboxamide], the inhibition at 1 µM worked out at 5.8%.

As to `CC1(C)OCC(COc2ccc(F)cc2[C@H]2CCCN2c2ccn3ncc(C(=O)NC4CC4)c3n2)O1` (stereo partly drawn) [Example 204, N-cyclopropyl-5-((2R)-2-(2-((2,2-dimethyl-1,3-dioxolan-4-yl)methoxy)-5-fluorophenyl)pyrrolidin-1-yl)pyrazolo[1,5-a]pyrimidine-3-carboxamide], the inhibition at 1 µM was 37%.

Regarding `O=C(NOCCO)c1cnn2ccc(N3CCC[C@@H]3c3cc(F)cnc3Cl)nc12` [Example 225, (R)-5-(2-(2-chloro-5-fluoropyridin-3-yl)pyrrolidin-1-yl)-N-(2-hydroxyethoxy)pyrazolo[1,5-a]pyrimidine-3-carboxamide], the inhibition at 1 µM was 2.7%.

`NS(=O)(=O)CCNC(=O)c1cnn2ccc(N3CCC[C@@H]3c3cc(F)ccc3F)nc12` [Example 47, (R)-5-(2-(2,5-difluorophenyl)pyrrolidin-1-yl)-N-(2-sulfamoylethyl)pyrazolo[1,5-a]pyrimidine-3-carboxamide]: the inhibition at 1 µM was found to be 37.3%.

Regarding `CC(C)[C@@H](CO)NC(=O)c1cnn2ccc(N3CCC[C@@H]3c3cncc(F)c3)nc12` [Example 121, 5-((R)-2-(5-fluoropyridin-3-yl)pyrrolidin-1-yl)-N-((S)-1-hydroxy-3-methylbutan-2-yl)pyrazolo[1,5-a]pyrimidine-3-carboxamide], the inhibition at 1 µM was 3.7%.

Turning to `CC1(O)CN(C(=O)c2cnn3ccc(N4CCC[C@@H]4c4cc(F)ccc4F)nc23)C1` [Example 32, (R)-(5-(2-(2,5-difluorophenyl)pyrrolidin-1-yl)pyrazolo[1,5-a]pyrimidin-3-yl)(3-hydroxy-3-methylazetidin-1-yl)methanone], the inhibition at 1 µM worked out at 8.6%.

For `COc1ncc(F)cc1[C@H]1CCCN1c1ccn2ncc(C(=O)NC[C@@H](C)O)c2n1` [Example 157, 5-((R)-2-(5-fluoro-2-methoxypyridin-3-yl)pyrrolidin-1-yl)-N-((R)-2-hydroxypropyl)pyrazolo[1,5-a]pyrimidine-3-carboxamide], the inhibition at 1 µM came out at 9.6%.

Consider `CC(C)[C@H](CO)NC(=O)c1cnn2ccc(N3CCC[C@@H]3c3cncc(F)c3)nc12` [Example 122, 5-((R)-2-(5-fluoropyridin-3-yl)pyrrolidin-1-yl)-N-((R)-1-hydroxy-3-methylbutan-2-yl)pyrazolo[1,5-a]pyrimidine-3-carboxamide], for which the inhibition at 1 µM stood at 7.4%.

On to `NS(=O)(=O)N1CCC(NC(=O)c2cnn3ccc(N4CCC[C@@H]4c4cc(F)ccc4F)nc23)CC1` [Example 45, (R)-5-(2-(2,5-difluorophenyl)pyrrolidin-1-yl)-N-(1-sulfamoylpiperidin-4-yl)pyrazolo[1,5-a]pyrimidine-3-carboxamide], for which the inhibition at 1 µM is 84%.

With `COc1ncc(F)cc1[C@H]1CCCN1c1ccn2ncc(C(=O)NCCCCO)c2n1` [Example 151, (R)-5-(2-(5-fluoro-2-methoxypyridin-3-yl)pyrrolidin-1-yl)-N-(4-hydroxybutyl)pyrazolo[1,5-a]pyrimidine-3-carboxamide], the inhibition at 1 µM turned out to be 35.6%.

The target of another test is Jak1 (GST-tagged human Jak1 kinase domain, amino acids 866-1154) (Homo sapiens (Human), UniProt P23458). Description: Jak1 inhibition assay (Omnia kinase assay). The test is classed as biochemical. As to conditions: read-out: Jak1 (% inhibition at 1000 nM); Table 2; 1000 nM test compound. How it is done: as §1, §2, §3, §4, §5, §6
Sequence of Jak1 (GST-tagged human Jak1 kinase domain, amino acids 866-1154) (P23458 866-1154): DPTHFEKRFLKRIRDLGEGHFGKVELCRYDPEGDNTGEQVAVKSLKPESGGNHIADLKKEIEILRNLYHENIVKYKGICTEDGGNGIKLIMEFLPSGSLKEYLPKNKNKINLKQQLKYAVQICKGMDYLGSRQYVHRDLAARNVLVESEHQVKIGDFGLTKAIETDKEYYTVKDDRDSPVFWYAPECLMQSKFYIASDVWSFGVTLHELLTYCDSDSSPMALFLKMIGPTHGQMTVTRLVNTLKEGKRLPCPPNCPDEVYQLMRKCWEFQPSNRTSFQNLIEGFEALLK
Compounds of Formula I were screened for their ability to inhibit Jak1 using the general enzyme inhibition assay method, in which the assay mixture contained 500 μM ATP, 8 μM Omnia® Y12 peptide (Catalog # IVGN KPZ3121C; Invitrogen Corporation, Carlsbad, Calif.) and 5 nM Jak1 in a total volume of 20 μL. […] (catalog # IVGN PV4774).
Turning to `CNC(=O)c1cnn2ccc(N3CCC[C@@H]3c3cncc(F)c3)nc12` [Example 114, (R)-5-(2-(5-fluoropyridin-3-yl)pyrrolidin-1-yl)-N-methylpyrazolo[1,5-a]pyrimidine-3-carboxamide], the inhibition at 1 µM is 10.9%.

In the next test the target is Tyk2 (human Tyk2 kinase domain, amino acids 886 to 1187) (Homo sapiens (Human), UniProt P29597). The test is described as follows: Tyk2 inhibition assay (Omnia kinase assay). The test is classed as biochemical. As to conditions: read-out: Tyk2 (% inhibition at 1000 nM); Table 2; 1000 nM test compound. As for the experimental part: as §1, §2, §3, §4, §5, §6
Sequence of Tyk2 (human Tyk2 kinase domain, amino acids 886 to 1187) (P29597 886-1187): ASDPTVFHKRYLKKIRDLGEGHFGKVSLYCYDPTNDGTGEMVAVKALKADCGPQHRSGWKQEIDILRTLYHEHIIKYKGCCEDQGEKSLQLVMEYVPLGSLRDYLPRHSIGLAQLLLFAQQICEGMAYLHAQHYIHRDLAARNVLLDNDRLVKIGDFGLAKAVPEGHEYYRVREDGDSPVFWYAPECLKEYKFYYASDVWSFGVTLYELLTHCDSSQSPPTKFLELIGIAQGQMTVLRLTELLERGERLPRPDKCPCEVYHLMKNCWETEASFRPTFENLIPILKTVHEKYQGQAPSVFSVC
Compounds of Formula I were screened for their ability to inhibit Tyk2 using the general enzyme inhibition assay method, in which the assay mixture contained 500 μM ATP, 8 μM Omnia® Y12 peptide (Catalog # IVGN KPZ3121C; Invitrogen Corporation, Carlsbad, Calif.) and 1 nM Tyk2 in a total volume of 20 μL. Human Tyk2 kinase domain, comprising amino acids 886 to 1187 with 10 additional histidine residues (histidine tag) on the carboxy terminus, was expressed and purified from baculovirus in-house at Array BioPharma Inc. (Boulder, Colo.). The histidine tag was cleaved after purification using standard conditions.
With `CNC(=O)c1cnn2ccc(N3CCC[C@@H]3c3cncc(F)c3)nc12` [Example 114, (R)-5-(2-(5-fluoropyridin-3-yl)pyrrolidin-1-yl)-N-methylpyrazolo[1,5-a]pyrimidine-3-carboxamide], the inhibition at 1 µM is 11.4%.

The values above are taken from patent publication US10251889B2, “Substituted pyrazolo[1,5-a]pyrimidine compounds as Trk kinase inhibitors” (Array BioPharma, Inc., priority 2009, dated 2019).
